These results are taken from patent US10669269B2, “Substituted N-(1H-indazol-4-yl)imidazo[1,2-a]pyridine-3-carboxamide compounds as type III receptor tyrosine kinase inhibitors” (ARRAY BIOPHARMA INC., priority 2010, dated 2020).

The target of one test is T1, PDGFR beta (Homo sapiens, UniProt P09619).
T1 construct: endogenous in cells; host or cells: HS27 human fibroblast cell line
Kind of test: Phospho PDGFR LICOR Cell Assay (Example B). It counts as cell-based. As to conditions: averaged IC50; PDGFR beta phosphorylation in HS27 human fibroblast cell line, PDGF-BB stimulation 10 minutes, normalized to total ERK. The method, then:
Compounds were screened for inhibition of PDGFR beta phosphorylation in the HS27 human fibroblast cell line. Cells were seeded into a 96 well tissue culture plate, then incubated overnight in a 37° C./5% CO2 incubator. The following day, cells were treated for one hour with test compound dilutions. After stimulation with PDGF-BB ligand for 10 minutes, cells were washed with PBS and fixed in 3.7% formaldehyde in PBS for 10 minutes. This was followed by washing in PBS/0.2% Triton X-100 and permeabilizing in 100% MeOH for 10 minutes. Cells were incubated in blocking buffer for 1 hour. Antibodies to phosphorylated PDGFRβ and total ERK were added to the cells and incubated for 3 hours. After washing with PBS/0.2% Triton X-100, the cells were incubated with fluorescently-labeled secondary antibodies for an additional hour. Cells were then washed with PBS and analyzed for fluorescence at both wavelengths using the Odyssey Infrared Imaging System (LI-COR Biosciences). Phosphorylated PDGFR signal was normalized to total ERK signal. A standard 4-parameter logistic model was fit to the inhibitor dose response curves, with the IC50 being defined as the concentration of inhibitor giving 50 percent of control (POC).

In another test the target is T2, cFMS (Homo sapiens, UniProt P07333).
T2 construct: THP-1 cells (human acute monocytic leukemia cell line) were serum-starved for 4 hours; endogenous in cells; host or cells: THP-1 cells (human acute monocytic leukemia cell line)
T2 sequence (P07333 20-972): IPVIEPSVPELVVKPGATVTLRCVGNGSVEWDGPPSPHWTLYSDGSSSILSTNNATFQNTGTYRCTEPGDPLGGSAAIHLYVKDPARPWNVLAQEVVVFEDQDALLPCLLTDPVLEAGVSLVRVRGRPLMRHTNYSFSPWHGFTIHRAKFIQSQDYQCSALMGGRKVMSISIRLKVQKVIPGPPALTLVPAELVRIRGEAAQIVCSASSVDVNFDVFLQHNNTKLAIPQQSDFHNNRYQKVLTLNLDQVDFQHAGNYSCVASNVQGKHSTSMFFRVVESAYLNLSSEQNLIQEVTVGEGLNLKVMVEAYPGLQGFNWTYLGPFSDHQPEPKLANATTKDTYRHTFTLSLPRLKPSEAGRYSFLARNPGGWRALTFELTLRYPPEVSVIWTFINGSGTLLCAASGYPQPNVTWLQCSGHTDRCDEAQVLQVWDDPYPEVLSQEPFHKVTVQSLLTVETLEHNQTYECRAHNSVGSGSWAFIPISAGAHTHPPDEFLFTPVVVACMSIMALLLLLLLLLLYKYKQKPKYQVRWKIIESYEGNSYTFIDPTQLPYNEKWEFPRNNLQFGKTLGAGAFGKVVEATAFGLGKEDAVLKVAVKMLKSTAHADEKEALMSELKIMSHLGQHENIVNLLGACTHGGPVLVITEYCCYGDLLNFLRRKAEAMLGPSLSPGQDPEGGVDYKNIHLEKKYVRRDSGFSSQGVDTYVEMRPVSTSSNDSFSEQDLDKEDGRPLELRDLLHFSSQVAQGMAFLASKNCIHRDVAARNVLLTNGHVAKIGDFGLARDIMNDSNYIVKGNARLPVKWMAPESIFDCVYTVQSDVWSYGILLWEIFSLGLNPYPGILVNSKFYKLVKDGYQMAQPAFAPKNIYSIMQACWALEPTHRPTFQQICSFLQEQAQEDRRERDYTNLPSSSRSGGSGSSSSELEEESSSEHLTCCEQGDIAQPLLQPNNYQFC
The experiment in a line: cFMS Cell-Based Assay (Example C). To be noted: averaged IC50; phospho-cFMS in THP-1 cells stimulated with 250 ng/mL recombinant human MCSF; read-out: cFMS Cell ELISA IC50. The method, then:
The ability of compounds of Formula I to inhibit cFMS activation in cells was determined by the following assay. THP-1 cells (human acute monocytic leukemia cell line) were serum-starved for 4 hours prior to treatment with compounds of Formula I for 1 hour. The concentration of compounds of Formula I was varied over a 9-point, 3-fold dilution series with 5,000 nM typically being the highest dose. Cell culture and treatment were carried out in a humidified 37° C., 5% CO2 incubator. Treated cells were stimulated with 250 ng/mL recombinant human MCSF for 1 minute to induce activation of cFMS. Cells were lysed in a manner which preserves phosphoproteins, and the lysate was analyzed by ELISA (R&D Systems, Human Phospho-M-CSF R DuoSet IC DYC3268), in which total cFMS protein in the lysate is captured and phosphotyrosine residues of cFMS are detected. A standard curve, made using purified phospho-M-CSF R protein, was used to quantify phospho-c-FMS in compound-treated wells. A standard 4-parameter logistic model was fit to the inhibitor dose response curves, with the IC50 being defined as the concentration of inhibitor giving 50 percent of control (POC).
(ELISA stands for enzyme-linked immunosorbent assay.)

The target in another test is T3, c-KIT (Homo sapiens, UniProt P10721).
T3 construct: M-07e cells (human acute megakaryoblastic leukemia cell line) were serum-starved for 4 hours; endogenous in cells; host or cells: M-07e cells (human acute megakaryoblastic leukemia cell line)
T3 sequence (P10721 26-976): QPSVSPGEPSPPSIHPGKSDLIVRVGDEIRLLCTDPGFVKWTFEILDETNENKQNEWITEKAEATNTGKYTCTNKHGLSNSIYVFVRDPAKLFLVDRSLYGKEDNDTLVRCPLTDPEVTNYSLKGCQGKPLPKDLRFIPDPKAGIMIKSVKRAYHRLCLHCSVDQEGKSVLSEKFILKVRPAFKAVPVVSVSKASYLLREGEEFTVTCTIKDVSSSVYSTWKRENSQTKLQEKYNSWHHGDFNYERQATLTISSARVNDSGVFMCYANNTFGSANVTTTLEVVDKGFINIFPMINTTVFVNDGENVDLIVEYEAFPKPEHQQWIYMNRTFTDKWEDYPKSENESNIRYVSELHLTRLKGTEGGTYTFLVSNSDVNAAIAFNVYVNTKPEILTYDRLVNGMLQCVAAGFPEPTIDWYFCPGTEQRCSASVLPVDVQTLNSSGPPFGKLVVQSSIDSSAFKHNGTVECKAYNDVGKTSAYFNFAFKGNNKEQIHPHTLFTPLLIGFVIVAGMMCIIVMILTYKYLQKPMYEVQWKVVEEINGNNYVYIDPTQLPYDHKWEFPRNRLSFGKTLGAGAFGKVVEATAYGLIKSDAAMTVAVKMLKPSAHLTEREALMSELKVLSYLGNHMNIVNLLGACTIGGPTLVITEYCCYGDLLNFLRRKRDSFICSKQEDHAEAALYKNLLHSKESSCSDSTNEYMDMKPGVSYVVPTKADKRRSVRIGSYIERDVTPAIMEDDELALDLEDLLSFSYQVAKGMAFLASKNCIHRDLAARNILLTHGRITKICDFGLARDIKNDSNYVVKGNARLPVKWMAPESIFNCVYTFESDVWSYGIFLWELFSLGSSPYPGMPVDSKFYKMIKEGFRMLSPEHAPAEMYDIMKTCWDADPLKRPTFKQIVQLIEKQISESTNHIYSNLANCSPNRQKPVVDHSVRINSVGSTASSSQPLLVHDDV
Kind of test: c-KIT Cell-Based Assay (Example D). To be noted: averaged IC50; phospho-c-KIT in M-07e cells stimulated with 150 ng/ml recombinant human SCF; read-out: cKIT Cell ELISA IC50. On the procedure:
The ability of compounds of Formula I to inhibit c-KIT activation in cells was determined by the following assay. M-07e cells (human acute megakaryoblastic leukemia cell line) were serum-starved for 4 hours prior to treatment with compounds of Formula I for 1 hour. The concentration of compounds of Formula I was varied over a 9-point, 3-fold dilution series with 5,000 nM typically being the highest dose. Cell culture and treatment were carried out in a humidified 37° C., 5% CO2 incubator. Treated cells were stimulated with 150 ng/ml recombinant human SCF for 4 minutes to induce activation of c-KIT. Cells were lysed in a manner which preserves phosphoproteins, and the lysate was analyzed by ELISA (R&D Systems, Human Phospho-SCF R DuoSet IC DYC3527), in which total c-KIT protein in the lysate is captured and phosphotyrosine residues of c-Kit are detected. A standard curve, made using purified phospho-SCF R protein, was used to quantify phospho-c-KIT in compound-treated wells. A standard 4-parameter logistic model was fit to the inhibitor dose response curves, with the IC50 being defined as the concentration of inhibitor giving 50 percent of control (POC).

The structures appear in SMILES notation. Counter-ions that a name gives are not always drawn.

T1 sequence (P09619 33-1106): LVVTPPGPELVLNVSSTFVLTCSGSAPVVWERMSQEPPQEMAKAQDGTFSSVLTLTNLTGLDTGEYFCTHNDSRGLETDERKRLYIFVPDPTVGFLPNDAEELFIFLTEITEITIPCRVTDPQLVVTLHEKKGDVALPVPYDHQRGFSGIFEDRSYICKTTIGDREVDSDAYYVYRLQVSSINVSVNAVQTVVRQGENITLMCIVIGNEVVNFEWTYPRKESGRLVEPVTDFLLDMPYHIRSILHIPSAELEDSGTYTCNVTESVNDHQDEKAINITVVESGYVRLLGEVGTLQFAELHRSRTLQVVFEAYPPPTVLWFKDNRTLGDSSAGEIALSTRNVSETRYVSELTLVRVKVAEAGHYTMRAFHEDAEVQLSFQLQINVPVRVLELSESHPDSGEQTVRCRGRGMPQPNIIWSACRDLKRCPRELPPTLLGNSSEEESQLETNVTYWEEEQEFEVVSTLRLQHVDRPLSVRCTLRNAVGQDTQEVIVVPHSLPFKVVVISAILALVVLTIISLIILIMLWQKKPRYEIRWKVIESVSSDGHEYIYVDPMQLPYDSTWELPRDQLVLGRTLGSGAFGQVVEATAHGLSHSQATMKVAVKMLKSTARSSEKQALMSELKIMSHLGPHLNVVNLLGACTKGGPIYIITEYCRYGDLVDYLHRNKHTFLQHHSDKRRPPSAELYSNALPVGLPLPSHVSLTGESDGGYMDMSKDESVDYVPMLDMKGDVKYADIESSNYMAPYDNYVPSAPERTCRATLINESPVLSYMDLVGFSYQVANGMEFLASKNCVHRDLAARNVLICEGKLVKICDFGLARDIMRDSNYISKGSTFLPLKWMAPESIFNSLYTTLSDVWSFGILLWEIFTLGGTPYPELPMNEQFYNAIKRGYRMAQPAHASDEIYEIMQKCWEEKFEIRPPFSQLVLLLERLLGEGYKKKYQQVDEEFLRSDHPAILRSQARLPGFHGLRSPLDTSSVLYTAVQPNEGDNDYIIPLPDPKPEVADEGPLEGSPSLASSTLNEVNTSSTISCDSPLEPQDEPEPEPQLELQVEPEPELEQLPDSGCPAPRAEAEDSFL

For `CC(c1ccn2c(C(=O)Nc3cccc4c3cnn4Cc3ccccc3)cnc2c1)N1CCOCC1` (stereo not drawn) [Example 148, N-(1-benzyl-1H-indazol-4-yl)-7-(1-morpholinoethyl)imidazo[1,2-a]pyridine-3-carboxamide], the IC50 worked out at 994 nM against PDGFR beta, 93.1 nM at cFMS and 189 nM at c-KIT.
On to `COCCOc1ccn2c(C(=O)Nc3cccc4c3cnn4Cc3cccc(C)n3)cnc2c1` [Example 142, 7-(2-methoxyethoxy)-N-(1-((6-methylpyridin-2-yl)methyl)-1H-indazol-4-yl)imidazo[1,2-a]pyridine-3-carboxamide], for which the results for the IC50 against PDGFR beta, on cFMS and at c-KIT were 14.2 nM, 6.9 nM and 6.1 nM, respectively.
The like results for `CN1CCN(CCOc2ccn3c(C(=O)Nc4c(Cl)ccc5c4cnn5Cc4cccc(C(F)(F)F)c4)cnc3c2)CC1` [Example 100, N-(5-chloro-1-(3-(trifluoromethyl)benzyl)-1H-indazol-4-yl)-7-(2-(4-methylpiperazin-1-yl)ethoxy)imidazo[1,2-a]pyridine-3-carboxamide] were, in that order, 6 nM, 23.6 nM and 3.3 nM.
For `O=C(Nc1cccc2c1cnn2Cc1ccccc1)c1cnc2cc(-c3cn[nH]c3)ccn12` [Example 145, N-(1-benzyl-1H-indazol-4-yl)-7-(1H-pyrazol-4-yl)imidazo[1,2-a]pyridine-3-carboxamide] the same measures were 13 nM, 20.5 nM and 55.9 nM.
The like results for `COCCOc1ccn2c(C(=O)Nc3cccc4c3cnn4Cc3ccncc3)cnc2c1` [Example 111, 7-(2-methoxyethoxy)-N-(1-(pyridin-4-ylmethyl)-1H-indazol-4-yl)imidazo[1,2-a]pyridine-3-carboxamide] were, in that order, 449 nM, 150 nM and 451 nM.
Turning to `Cc1nn(Cc2csc(C(C)C)n2)c2cccc(NC(=O)c3cnc4cc(OCCN5CCN(C)[C@@H](C)C5)ccn34)c12` [Example 30, (S)-7-(2-(3,4-dimethylpiperazin-1-yl)ethoxy)-N-(1-((2-isopropylthiazol-4-yl)methyl)-3-methyl-1H-indazol-4-yl)imidazo[1,2-a]pyridine-3-carboxamide], the results for the concentration for half-maximal inhibition (IC50) against PDGFR beta, at cFMS and on c-KIT were 17.4 nM, 17.6 nM and 65.3 nM, respectively.
Regarding `COCCOc1ccn2c(C(=O)Nc3cccc4c3cnn4Cc3cccc(Cl)c3)cnc2c1` [Example 141, N-(1-(3-chlorobenzyl)-1H-indazol-4-yl)-7-(2-methoxyethoxy)imidazo[1,2-a]pyridine-3-carboxamide], the half-maximal inhibitory concentration (IC50) on PDGFR beta is 1.6 nM; on cFMS, 4.4 nM; at c-KIT it was 3.7 nM.
For `Cc1nn(Cc2cc(C)n(C(C)C)n2)c2cccc(NC(=O)c3cnc4cc(OCCN5CCN(C(C)C)CC5)ccn34)c12` [Example 10, N-(1-((1-Isopropyl-5-methyl-1H-pyrazol-3-yl)methyl)-3-methyl-1H-indazol-4-yl)-7-(2-(4-isopropylpiperazin-1-yl)ethoxy)imidazo[1,2-a]pyridine-3-carboxamide], the IC50 turned out to be 40.8 nM on PDGFR beta, 25.3 nM at cFMS and 141 nM on c-KIT.
With `CC(O)c1ccn2c(C(=O)Nc3cccc4c3cnn4Cc3ccccc3)cnc2c1` (stereo not drawn) [Example 147, N-(1-benzyl-1H-indazol-4-yl)-7-(1-hydroxyethyl)imidazo[1,2-a]pyridine-3-carboxamide], the IC50 against PDGFR beta was found to be 399 nM; at cFMS, 72.6 nM; on c-KIT, 93.1 nM.
For `COCCOc1ccn2c(C(=O)Nc3c(Br)ccc4c3cnn4Cc3ccccc3)cnc2c1` [Example 134, N-(1-Benzyl-5-bromo-1H-indazol-4-yl)-7-(2-methoxyethoxy)imidazo[1,2-a]pyridine-3-carboxamide] the same measures were 2.4 nM, 3.1 nM and 11 nM.
In the case of `CNC(=O)c1cccc(Cn2ncc3c(NC(=O)c4cnc5cc(OCCOC)ccn45)cccc32)c1` [Example 95, 7-(2-Methoxyethoxy)-N-(1-(3-(methylcarbamoyl)benzyl)-1H-indazol-4-yl)imidazo[1,2-a]pyridine-3-carboxamide], the half-maximal inhibitory concentration (IC50) against PDGFR beta is 74.3 nM; on cFMS it was 31.4 nM; at c-KIT, 78.2 nM.
As for `Cc1ccc(Cn2nc(C)c3c(NC(=O)c4cnc5ccccn45)cccc32)cn1` [Example 81, N-(3-methyl-1-((6-methylpyridin-3-yl)methyl)-1H-indazol-4-yl)imidazo[1,2-a]pyridine-3-carboxamide], the IC50 was 6440 nM on PDGFR beta, 136 nM at cFMS and 4440 nM on c-KIT.
The like results for `COCCOc1ccn2c(C(=O)Nc3c(Cl)ccc4c3cnn4Cc3ccccc3)cnc2c1` [Example 137, N-(1-benzyl-5-chloro-1H-indazol-4-yl)-7-(2-methoxyethoxy)imidazo[1,2-a]pyridine-3-carboxamide] were, in that order, 2 nM, 3.1 nM and 3.1 nM.
The like results for `CN1CCN(CCOc2ccn3c(C(=O)Nc4cccc5c4cnn5Cc4cccnc4)cnc3c2)CC1` [Example 102, 7-(2-(4-methylpiperazin-1-yl)ethoxy)-N-(1-(pyridin-3-ylmethyl)-1H-indazol-4-yl)imidazo[1,2-a]pyridine-3-carboxamide trihydrochloride] were, in that order, 17.6 nM, 26 nM and 94.9 nM.
Consider `NC(=O)c1ccc2ncc(C(=O)Nc3cccc4c3cnn4Cc3ccccc3)n2c1` [Example 160, N3-(1-benzyl-1H-indazol-4-yl)imidazo[1,2-a]pyridine-3,6-dicarboxamide], for which the IC50 was 714 nM against PDGFR beta, 132 nM on cFMS and 868 nM on c-KIT.
Regarding `Cc1nn(Cc2cc(C)n(C(C)C)n2)c2cccc(NC(=O)c3cnc4cc(OCCN5CCCN(C)CC5)ccn34)c12` [Example 11, N-(1-((1-isopropyl-5-methyl-1H-pyrazol-3-yl)methyl)-3-methyl-1H-indazol-4-yl)-7-(2-(4-methyl-1,4-diazepan-1-yl)ethoxy)imidazo[1,2-a]pyridine-3-carboxamide], the 50% inhibitory concentration (IC50) on PDGFR beta was 46.5 nM; at cFMS it was 26.2 nM; at c-KIT, 157 nM.
For `Cc1ccc(Cn2nc(C)c3c(NC(=O)c4cnc5cc(OCCN6CCN(C)CC6)ccn45)cccc32)cn1` [Example 85, N-(3-methyl-1-((6-methylpyridin-3-yl)methyl)-1H-indazol-4-yl)-7-(2-(4-methylpiperazin-1-yl)ethoxy)imidazo[1,2-a]pyridine-3-carboxamide] the same measures were 401 nM, 10.4 nM and 303 nM.
For `O=C(Nc1cccc2c1cnn2Cc1ccccn1)c1cnc2ccccn12` [Example 129, N-(1-(pyridin-2-ylmethyl)-1H-indazol-4-yl)imidazo[1,2-a]pyridine-3-carboxamide] the same measures were 117 nM, 80 nM and 124 nM.
The like results for `O=C(Nc1cccc2c1cnn2Cc1ccccc1)c1cnc2cc(OCCN3CCOCC3)ccn12` [Example 90, N-(1-benzyl-1H-indazol-4-yl)-7-(2-morpholinoethoxy)imidazo[1,2-a]pyridine-3-carboxamide] were, in that order, 5 nM, 9.8 nM and 25.8 nM.

The term IC50 denotes the point on the concentration scale where inhibition reaches its midpoint.
